# Assay results from PubChem BioAssay AID1259407 (Chemical Carcinogenesis Research Information System (CCRIS), 2018).
# The source made the active and inactive calls. How the calls were made is not given here.
# System: CCRIS mutagenicity, Ames/micronucleus/aberration tests
# Test: CCRIS mutagenicity studies
smiles,measurement,setting,value
Clc1ccccc1C(c1ccccc1)C(c1ccccc1)c1ccccc1Cl (configuration not stated),mutagenic call,"Test System: Mouse lymphoma, Strain/Indicator: L5178Y (tk+/tk-), Metabolic Activation: None, Method: Suspension/plate",inactive; negative
same,mutagenic call,"Test System: Mouse lymphoma, Strain/Indicator: L5178Y (tk+/tk-), Metabolic Activation: Rat, Liver, S-9, Aroclor 1254, Method: Suspension/plate",active; equivocal (previous evaluation positive)
NC(=Nc1ccccc1)Nc1ccccc1,mutagenic call,"Test System: AMES SALMONELLA TYPHIMURIUM, Strain/Indicator: TA98, Metabolic Activation: HAMSTER, LIVER, S-9, AROCLOR 1254, Method: STANDARD PLATE",active; positive
same,mutagenic call,"Test System: AMES SALMONELLA TYPHIMURIUM, Strain/Indicator: TA98, Metabolic Activation: NONE, Method: PREINCUBATION",inactive; negative
same,mutagenic call,"Test System: AMES SALMONELLA TYPHIMURIUM, Strain/Indicator: TA98, Metabolic Activation: NONE, Method: STANDARD PLATE",inactive; negative
same,mutagenic call,"Test System: AMES SALMONELLA TYPHIMURIUM, Strain/Indicator: TA98, Metabolic Activation: RAT LIVER S-9, PHENOBARBITAL AND BETA-NAPHTHOFLAVONE, Method: PREINCUBATION",inactive; negative
same,mutagenic call,"Test System: AMES SALMONELLA TYPHIMURIUM, Strain/Indicator: TA98, Metabolic Activation: RAT, LIVER, S-9, AROCLOR 1254, Method: STANDARD PLATE",inactive; negative
same,mutagenic call,"Test System: AMES SALMONELLA TYPHIMURIUM, Strain/Indicator: TA98, Metabolic Activation: S-9, Method: STANDARD PLATE",inactive; negative
same,mutagenic call,"Test System: AMES SALMONELLA TYPHIMURIUM, Strain/Indicator: TA100, Metabolic Activation: HAMSTER, LIVER, S-9, AROCLOR 1254, Method: STANDARD PLATE",active; positive
same,mutagenic call,"Test System: AMES SALMONELLA TYPHIMURIUM, Strain/Indicator: TA100, Metabolic Activation: NONE, Method: PREINCUBATION",inactive; negative
same,mutagenic call,"Test System: AMES SALMONELLA TYPHIMURIUM, Strain/Indicator: TA100, Metabolic Activation: NONE, Method: STANDARD PLATE",inactive; negative
same,mutagenic call,"Test System: AMES SALMONELLA TYPHIMURIUM, Strain/Indicator: TA100, Metabolic Activation: RAT LIVER S-9, PHENOBARBITAL AND BETA-NAPHTHOFLAVONE, Method: PREINCUBATION",inactive; negative
same,mutagenic call,"Test System: AMES SALMONELLA TYPHIMURIUM, Strain/Indicator: TA100, Metabolic Activation: RAT, LIVER, S-9, AROCLOR 1254, Method: STANDARD PLATE",inactive; negative
same,mutagenic call,"Test System: AMES SALMONELLA TYPHIMURIUM, Strain/Indicator: TA100, Metabolic Activation: S-9, Method: STANDARD PLATE",inactive; negative
same,mutagenic call,"Test System: AMES SALMONELLA TYPHIMURIUM, Strain/Indicator: TA1535, Metabolic Activation: HAMSTER, LIVER, S-9, AROCLOR 1254, Method: STANDARD PLATE",inactive; negative
same,mutagenic call,"Test System: AMES SALMONELLA TYPHIMURIUM, Strain/Indicator: TA1535, Metabolic Activation: NONE, Method: PREINCUBATION",inactive; negative
same,mutagenic call,"Test System: AMES SALMONELLA TYPHIMURIUM, Strain/Indicator: TA1535, Metabolic Activation: NONE, Method: STANDARD PLATE",inactive; negative
same,mutagenic call,"Test System: AMES SALMONELLA TYPHIMURIUM, Strain/Indicator: TA1535, Metabolic Activation: RAT LIVER S-9, PHENOBARBITAL AND BETA-NAPHTHOFLAVONE, Method: PREINCUBATION",inactive; negative
same,mutagenic call,"Test System: AMES SALMONELLA TYPHIMURIUM, Strain/Indicator: TA1535, Metabolic Activation: RAT, LIVER, S-9, AROCLOR 1254, Method: STANDARD PLATE",inactive; negative
same,mutagenic call,"Test System: AMES SALMONELLA TYPHIMURIUM, Strain/Indicator: TA1537, Metabolic Activation: HAMSTER, LIVER, S-9, AROCLOR 1254, Method: STANDARD PLATE",inactive; negative
same,mutagenic call,"Test System: AMES SALMONELLA TYPHIMURIUM, Strain/Indicator: TA1537, Metabolic Activation: NONE, Method: PREINCUBATION",inactive; negative
same,mutagenic call,"Test System: AMES SALMONELLA TYPHIMURIUM, Strain/Indicator: TA1537, Metabolic Activation: RAT LIVER S-9, PHENOBARBITAL AND BETA-NAPHTHOFLAVONE, Method: PREINCUBATION",inactive; negative
same,mutagenic call,"Test System: AMES SALMONELLA TYPHIMURIUM, Strain/Indicator: TA1537, Metabolic Activation: RAT, LIVER, S-9, AROCLOR 1254, Method: STANDARD PLATE",inactive; negative
same,mutagenic call,"Test System: AMES SALMONELLA TYPHIMURIUM, Strain/Indicator: TA1538, Metabolic Activation: HAMSTER, LIVER, S-9, AROCLOR 1254, Method: STANDARD PLATE",inactive; negative
same,mutagenic call,"Test System: AMES SALMONELLA TYPHIMURIUM, Strain/Indicator: TA1538, Metabolic Activation: NONE, Method: PREINCUBATION",inactive; negative
same,mutagenic call,"Test System: AMES SALMONELLA TYPHIMURIUM, Strain/Indicator: TA1538, Metabolic Activation: NONE, Method: STANDARD PLATE",inactive; negative
same,mutagenic call,"Test System: AMES SALMONELLA TYPHIMURIUM, Strain/Indicator: TA1538, Metabolic Activation: RAT LIVER S-9, PHENOBARBITAL AND BETA-NAPHTHOFLAVONE, Method: PREINCUBATION",inactive; negative
same,mutagenic call,"Test System: AMES SALMONELLA TYPHIMURIUM, Strain/Indicator: TA1538, Metabolic Activation: RAT, LIVER, S-9, AROCLOR 1254, Method: STANDARD PLATE",inactive; negative
same,mutagenic call,"Test System: E.COLI, Strain/Indicator: WP2UVRA, Metabolic Activation: NONE, Method: PREINCUBATION",inactive; negative
same,mutagenic call,"Test System: E.COLI, Strain/Indicator: WP2UVRA, Metabolic Activation: RAT LIVER S-9, PHENOBARBITAL AND BETA-NAPHTHOFLAVONE, Method: PREINCUBATION",inactive; negative
same,mutagenic call,"Test System: MOUSE LYMPHOMA, Strain/Indicator: L5178Y (TK+/TK-), Metabolic Activation: NONE, Method: SUSPENSION/PLATE",inactive; negative. reevaluation of results: negative
same,mutagenic call,"Test System: MOUSE LYMPHOMA, Strain/Indicator: L5178Y (TK+/TK-), Metabolic Activation: RAT, LIVER, S-9, AROCLOR 1254, Method: SUSPENSION/PLATE",inactive; negative. reevaluation of results: inconclusive
